Reference: patent US20040034082A1, “Utilization of pyrazoline derivatives in the preparation of a medicament for the prevention and/or treatment of proliferative cell diseases” (priority 2001, published 2004)

melting point [°C]	Structure (SMILES)
140 to 143	Cc1ccc(C2CC(C(F)(F)F)=NN2c2ccc(S(N)(=O)=O)cc2)cc1 (stereo not shown) [Example 1]
60 to 66	CC1(c2ccccc2)CC(C(F)(F)F)=NN1c1ccc(S(N)(=O)=O)cc1 (stereo not shown) [Example 2]
140 to 143	Cc1ccc(N2N=C(C(F)(F)F)CC2c2ccc(S(C)(=O)=O)cc2)cc1 (stereo not shown) [Example 4]
156 to 157	NS(=O)(=O)c1ccc(N2N=C(C(F)(F)F)CC2c2ccccc2)cc1 (stereo not shown) [Example 5]
137 to 140	CS(=O)(=O)c1ccc(N2N=C(C(F)(F)F)CC2c2ccccc2)cc1 (stereo not shown) [Example 6]
115 to 119	Cc1ccc(C2CC(C(F)(F)F)=NN2c2ccc(S(C)(=O)=O)cc2)cc1 (stereo not shown) [Example 7]
154 to 156	NS(=O)(=O)c1ccc(N2N=C(C(F)(F)F)CC2c2ccc(F)cc2)cc1 (stereo not shown) [Example 8]
121 to 122	CS(=O)(=O)c1ccc(N2N=C(C(F)(F)F)CC2c2ccc(F)cc2)cc1 (stereo not shown) [Example 9]
153 to 155	NS(=O)(=O)c1ccc(N2N=C(C(F)(F)F)CC2c2ccc(F)c(F)c2)cc1 (stereo not shown) [Example 11]
198 to 200	CS(=O)(=O)c1ccc(N2N=C(C(F)(F)F)CC2c2ccc(Cl)cc2Cl)cc1 (stereo not shown) [Example 12]
143 to 145	NS(=O)(=O)c1ccc(N2N=C(C(F)(F)F)CC2c2ccc(Cl)cc2Cl)cc1 (stereo not shown) [Example 13]
124 to 126	Cc1ccccc1C1CC(C(F)(F)F)=NN1c1ccc(S(N)(=O)=O)cc1 (stereo not shown) [Example 14]
125 to 128	Cc1cccc(C2CC(C(F)(F)F)=NN2c2ccc(S(N)(=O)=O)cc2)c1 (stereo not shown) [Example 15]
166 to 168	NS(=O)(=O)c1ccc(N2N=C(C(F)(F)F)CC2c2ccccc2F)cc1 (stereo not shown) [Example 16]
117 to 121	CS(=O)(=O)c1ccc(N2N=C(C(F)(F)F)CC2c2ccccc2F)cc1 (stereo not shown) [Example 17]
132 to 133	NS(=O)(=O)c1ccc(N2N=C(C(F)(F)F)CC2c2cccc(F)c2)cc1 (stereo not shown) [Example 18]

melting point [°C]	Structure (SMILES)
149 to 151	CS(=O)(=O)c1ccc(N2N=C(C(F)(F)F)CC2c2cccc(F)c2)cc1 (stereo not shown) [Example 19]
125 to 128	COc1ccc(C2CC(C(F)(F)F)=NN2c2ccc(S(N)(=O)=O)cc2)cc1 (stereo not shown) [Example 20]
171 to 173	NS(=O)(=O)c1ccc(N2N=C(C(F)(F)F)CC2c2ccc(F)c(Cl)c2)cc1 (stereo not shown) [Example 21]
134 to 137	NS(=O)(=O)c1ccc(N2N=C(C(F)(F)F)CC2c2ccc(OC(F)(F)F)cc2)cc1 (stereo not shown) [Example 22]
152 to 154	NS(=O)(=O)c1ccc(N2N=C(C(F)(F)F)CC2c2cccc(F)c2F)cc1 (stereo not shown) [Example 23]
158 to 160	Cc1ccc(C2CC(C(F)(F)F)=NN2c2ccc(S(N)(=O)=O)cc2)c(C)c1 (stereo not shown) [Example 24]
132 to 135	CS(=O)(=O)c1ccc(N2N=C(C(F)(F)F)CC2c2ccc(F)c(F)c2)cc1 (stereo not shown) [Example 25]
206 to 208	CC1=NN(c2ccc(S(N)(=O)=O)cc2)C(c2ccc(F)cc2)C1 (stereo not shown) [Example 26]
120 to 123	CC1=NN(c2ccc(S(C)(=O)=O)cc2)C(c2ccc(F)cc2)C1 (stereo not shown) [Example 27]
195 to 197	CC1=NN(c2ccc(S(N)(=O)=O)cc2)C(c2ccc(C)cc2)C1 (stereo not shown) [Example 28]
113 to 117	CC1=NN(c2ccc(S(C)(=O)=O)cc2)C(c2ccc(C)cc2)C1 (stereo not shown) [Example 29]
190 to 194	CC1=NN(c2ccc(S(N)(=O)=O)cc2)C(c2ccc(C(F)(F)F)cc2)C1 (stereo not shown) [Example 30]
206 to 208	NS(=O)(=O)c1ccc(N2N=CCC2c2ccccc2)cc1 (stereo not shown) [Example 31]
197 to 202	CS(=O)(=O)c1ccc(N2N=CCC2c2ccccc2)cc1 (stereo not shown) [Example 32]
136 to 138	CC1=NN(c2ccc(S(C)(=O)=O)cc2)C(c2ccc(C(F)(F)F)cc2)C1 (stereo not shown) [Example 33]
